This experiment deals with T1, human P2Y12 receptor (Homo sapiens, UniProt Q9H244).
T1 construct: expressed in transfected cells; host or cells: Chinese Hamster Ovary (CHO) cells
Briefly: P2Y12 receptor binding assay. The following applies: CHO cells with recombinant expression of the human P2Y12 receptor; tritium-labeled 2-methyl-S-ADP; incubation at room temperature for 2 hours. The protocol:
P2Y12 Receptor Binding Assay
Chinese Hamster Ovary (CHO) cells with recombinant expression of the human P2Y12 receptor were cultured in 24 well cell-culture plates. Cells were washed three times with binding buffer (50 mM Tris pH 7.4, 100 mM NaCl, 1 mM EDTA, 0.5% BSA). The cells were then incubated with 0.5 ml per well binding buffer containing tritium-labeled 2-methyl-thio-adenosine 5′-diphosphate (2-methyl-S-ADP) (between 100'000 and 300'000 dpm per well) and various concentrations of test compounds. After incubation at room temperature for 2 hours, cells were washed three times with binding buffer. Then, cells were solubilized by addition of 0.5 ml solubilization buffer (SDS, NaOH, EDTA). The content of each well was then transferred into beta-counter vials and 2.0 ml of Ultima Gold Scintillation liquid was added.

SMILES strings stand for the structures. Where a name gives a salt, the structure may show the parent alone.

What is called IC50 is the point on the concentration scale where inhibition reaches its midpoint.

T1 sequence (Q9H244 whole entry): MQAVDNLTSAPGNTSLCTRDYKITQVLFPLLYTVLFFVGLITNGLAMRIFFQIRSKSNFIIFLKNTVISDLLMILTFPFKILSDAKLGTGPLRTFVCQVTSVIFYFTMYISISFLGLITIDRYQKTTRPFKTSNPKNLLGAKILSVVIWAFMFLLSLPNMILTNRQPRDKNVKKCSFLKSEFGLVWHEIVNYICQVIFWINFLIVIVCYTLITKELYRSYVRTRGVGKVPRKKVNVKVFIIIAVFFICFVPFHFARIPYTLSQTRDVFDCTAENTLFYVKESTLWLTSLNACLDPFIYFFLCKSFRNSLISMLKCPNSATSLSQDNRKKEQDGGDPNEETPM

For the compound `CCOC(=O)N1CCN(C(=O)[C@H](CCC(=O)OC(C)(C)C)NC(=O)c2cc(OCC(=O)O)nc(-c3ccccc3)n2)CC1` [Example 132, 4-{(S)-4-tert-butoxycarbonyl-2-[(6-carboxymethoxy-2-phenyl-pyrimidine-4-carbonyl)-amino]-butyryl}-piperazine-1-carboxylic acid ethyl ester], the IC50 is 8110 nM.

In the case of `CCCC(CCC)C(=O)Nc1cc(C(=O)N[C@@H](CCC(=O)O)C(=O)N2CCN(C(=O)OCC)CC2)nc(-c2ccccc2)n1` [Example 341, 4-((S)-4-carboxy-2-{[2-phenyl-6-(2-propyl-pentanoylamino)-pyrimidine-4-carbonyl]-amino}-butyryl)-piperazine-1-carboxylic acid ethyl ester], the half-maximal inhibitory concentration (IC50) stood at 169 nM. `CCOC(=O)N1CCN(C(=O)[C@H](CCC(=O)O)NC(=O)c2cc(C(F)(F)F)nc(-c3ccccc3)n2)CC1` [Example 431, 4-{(S)-4-carboxy-2-[(2-phenyl-6-trifluoromethyl-pyrimidine-4-carbonyl)-amino]-butyryl}-piperazine-1-carboxylic acid ethyl ester]: the half-inhibitory concentration (IC50) amounted to 170 nM.

`CCOC(=O)N1CCN(C(=O)[C@H](CCC(=O)O)NC(=O)c2cc(C(C)=O)nc(-c3ccccc3)n2)CC1` [Example 402, 4-{(S)-2-[(6-acetyl-2-phenyl-pyrimidine-4-carbonyl)-amino]-4-carboxy-butyryl}-piperazine-1-carboxylic acid ethyl ester]: the concentration for half-maximal inhibition (IC50) came out at 72 nM. Next, `CCOC(=O)N1CCN(C(=O)[C@H](CCC(=O)O)NC(=O)c2cc(N(C)C)nc(-c3ccccc3)n2)CC1` [Example 79, 4-{(S)-4-carboxy-2-[(6-dimethylamino-2-phenyl-pyrimidine-4-carbonyl)-amino]-butyryl}-piperazine-1-carboxylic acid ethyl ester triflate salt]: 121 nM; `CCOC(=O)N1CCN(C(=O)[C@H](CCC(=O)O)NC(=O)c2cc(/C=C/C(C)O)nc(-c3ccccc3)n2)CC1` (stereo partly drawn) [Example 267, 4-((S)-4-carboxy-2-{[6-((E)-3-hydroxy-but-1-enyl)-2-phenyl-pyrimidine-4-carbonyl]-amino}-butyryl)-piperazine-1-carboxylic acid ethyl ester]: 216 nM; `CCOC(=O)N1CCN(C(=O)[C@H](CCC(=O)O)NC(=O)c2cc(CCO)nc(-c3ccccc3)n2)CC1` [Example 408, 4-((S)-4-carboxy-2-{[6-(2-hydroxy-ethyl)-2-phenyl-pyrimidine-4-carbonyl]-amino}-butyryl)-piperazine-1-carboxylic acid ethyl ester]: 207 nM.

With `CCCCc1cc(C(=O)N[C@@H](CCC(=O)O)C(=O)N2CCN(C(=O)OCC)CC2)nc(-c2ccccc2)n1` [Example 88, 4-{(S)-2-[(6-butyl-2-phenyl-pyrimidine-4-carbonyl)-amino]-4-carboxy-butyryl}-piperazine-1-carboxylic acid ethyl ester], the IC50 was 98 nM.

As for `CCOC(=O)N1CCN(C(=O)[C@H](CCCC(=O)O)NC(=O)c2cc(-c3ccccc3)nc(-c3ccccc3)n2)CC1` [Example 121, 4-{(S)-5-carboxy-2-[(2,6-diphenyl-pyrimidine-4-carbonyl)-amino]-pentanoyl}-piperazine-1-carboxylic acid ethyl ester], the 50% inhibitory concentration (IC50) turned out to be 127 nM. For the compound `CCOC(=O)N1CCN(C(=O)[C@H](CC(=O)O)NC(=O)c2cc(OC3CCCC3)nc(-c3ccccc3)n2)CC1` [Example 2, 4-{(S)-3-carboxy-2-[(6-cyclopentyloxy-2-phenyl-pyrimidine-4-carbonyl)-amino]-propionyl}-piperazine-1-carboxylic acid ethyl ester], the concentration for half-maximal inhibition (IC50) was 243 nM. Then `CCOC(=O)N1CCN(C(=O)[C@H](CCC(=O)O)NC(=O)c2cc(NC(C)COC)nc(-c3ccccc3)n2)CC1` (stereo partly drawn) [Example 223, 4-((S)-4-carboxy-2-{[6-(2-methoxy-1-methyl-ethylamino)-2-phenyl-pyrimidine-4-carbonyl]-amino}-butyryl)-piperazine-1-carboxylic acid ethyl ester formate salt], with 97 nM.

The record behind these values is US8048881B2, “Pyrimidine derivatives and their use as P2Y12 receptor antagonists” (Actelion Pharmaceuticals Ltd., priority 2005, dated 2011).
